Test results taken from US20240287082A1, “NEW BENZODIAZEPINE DERIVATIVES AS GABA A GAMMA1 PAM” (Hoffmann-La Roche Inc., priority 2021, published 2024).
Read-outs that look alike come from different tables or passages of the source.

Assays:
[1] = molecular target: human GABAA α1β3γ2 receptor (Homo sapiens (Human), UniProt P14867+P18507); experiment: Radioligand binding assay, competition for [3H]Flumazenil, γ2-containing GABAA subtype α1β3γ2
Description: The affinity of compounds at GABAA γ2 subunit-containing receptors was measured by competition for [^3H]Flumazenil (81.1 Ci/mmol; Roche) binding to HEK293F cells expressing human (transiently transfected) receptors of composition α1β3γ2.
Harvested pellets from HEK293F cells expressing the different GABAA γ2 receptor subtypes were resuspended in Mannitol Buffer pH 7.2-7.4 and processed as described above for the cells expressing the GABAA γ1 subunit-containing receptors.
Assays were incubated to equilibrium for 1 hour at 4° C. and harvested onto GF/C uni-filters (Packard) by filtration using a Packard harvester and washing with ice-cold wash buffer (50 mM Tris; pH 7.5). After anhydrousing, filter-retained radioactivity was detected by liquid scintillation counting. Ki values were calculated using Excel-Fit (Microsoft) and are the means of two determinations.

h-GABA-A α2β2γ1 = h-GABA-A α2β2γ1 (Homo sapiens (Human), UniProt P47869+Q8N1C3); experiment: Two-electrode voltage clamp electrophysiology in Xenopus oocytes expressing GABAA receptors, modulation of GABA EC20 current; format: cell-based; details: for Efficacy (GABA) %: % modulation of GABA EC20 = 100*(Fold increase−1), compound at 30-fold Ki α2β2γ1; for Fold increase h-GABA-A α2β2γ1 oocyte @ 30-fold Ki: Xenopus oocytes, GABA EC20, test compound at approx. 30-fold its Ki α2β2γ1; for potentiation of the GABA-induced current: α2β2γ1 GABAA receptor subtype expressing oocytes, reference PAMs
Description: Xenopus laevis oocytes at maturation stages V-VI were used for the expression of cloned mRNA encoding GABAA receptor subunits. Oocytes ready for RNA micro-injection were bought from Ecocyte, Castrop-Rauxel, Germany and stored in modified Barth's medium (composition in mM: NaCl 88, KCl 1, NaHCO3 2.4, HEPES 10, MgSO4 0.82, CaNO3 0.33, CaCl2 0.33, pH=7.5) at 20° C. until the experiment.
Oocytes were plated in 96-well plates for microinjection using the Roboinject automated instrument (MultiChannelSystems, Reutlingen, Germany). Approximately 50 nL of an aqueous solution containing the RNA transcripts for the subunits of the desired GABAA receptor subtype was injected into each oocyte. […] Oocytes were kept in modified Barth's medium (composition in mM: NaCl 88, KCl 1, NaHCO3 […], HEPES 10, MgSO4 0.82, CaNO3 0.33, CaCl2 0.33, pH=7.5) at 20° C. until the experiment.
Electrophysiological experiments were performed using the Roboocyte instrument (MultiChannelSystems, Reutlingen, Germany) on days 3 to 5 after the micro-injection of mRNA. During the experiment the oocytes were constantly superfused by a solution containing (in mM) NaCl 90, KCl 1, HEPES 5, MgCl2 1, CaCl2 1 (pH 7.4). Oocytes were impaled by two glass microelectrodes (resistance: 0.5-0.8 MΩ) which were filled with a solution containing KCl 1M+K-acetate 1.5 M and voltage-clamped to −80 mV. The recordings were performed at room temperature using the Roboocyte two-electrode voltage clamp system (Multichannelsystem). After an initial equilibration period of 1.5 min GABA was added for 1.5 min at a concentration evoking approximately 20% of a maximal current response (EC20). After another rest interval of 2.5 min GABA was again added evoking a response of similar amplitude and shape. […] Current traces were recorded at a digitization rate of 10 Hz during and shortly before and after the GABA application.
Each compound and concentration was tested on at least 3 oocytes. Different oocytes were used for different compound concentrations.
For the analysis, the digitized current traces of the first and second GABA response were superimposed and, if necessary, rescaled to equal maximal amplitudes. The ratio between the two responses during the time interval of test compound application was calculated point by point. The extremum of the resulting “ratio trace” was taken as the efficacy (“Fold increase”) of the compound expressed as “% modulation of GABA EC20” (100*(Fold increase−1)).

[2] = molecular target: human GABAA α2β2γ1 receptor (Homo sapiens (Human), UniProt P47869+Q8N1C3); experiment: Radioligand binding assay, competition for [3H]RO7239181, γ1-containing GABAA subtype α2β2γ1; details: for γ2/γ1 Selectivity Ratio: Ki α1β3γ2 (nM)/Ki α2β2γ1 (nM); for LogSel: Log[Ki α1β3γ2 (nM)/Ki α2β2γ1 (nM)]
Description: (§1) The affinity of compounds at GABAA γ1 subunit-containing receptors was measured by competition for [^3H]RO7239181 (67.3 Ci/mmol; Roche) binding to membranes from HEK293F cells (ThermoFisher R^79007) expressing human (transiently transfected) receptors of composition α5β2γ1, α2β2γ1, α1β2γ1.
(§2) Harvested pellets from HEK293F cells expressing the different GABAA receptor subtypes were resuspended in Mannitol Buffer pH 7.2-7.4 (Mannitol 0.29M, Triethylamine 10 mM, Acetic acid 10 mM, EDTA 1 mM plus protease inhibitors (20 tablets Complete, Roche Diagnostics Cat. No. 05 056 489 001 per liter)), washed two times and then resuspended at 1:10 to 1:15 dilution in the same buffer. Cell disruption was performed by stirring the suspension in a Parr vessel #4637 at 435 psi for 15 minutes, and then the suspensions were centrifuged at 1000×g for 15 minutes at 4° C. (Beckman Avanti J-HC: rotor JS-4.2). The supernatant (S1) was transferred in a 21 Schott flask and the pellet (P1) was resuspended with Mannitol Buffer up to 175 ml. The resuspended pellet was transferred into a 250 ml Corning centrifugal beaker and centrifuged at 1500×g for 10 minutes at 4° C. (Beckman Avanti J-HC: rotor JS-4.2). The supernatant (S1) was then transferred in the 21 Schott flask and the pellet was discarded. The supernatants (S1) were centrifuged in 500 ml Beckman polypropylene centrifugal beaker at 15 000×g for 30 minutes at 4° C. (Beckman Avanti J-20 XP: rotor JLA-10.500). The pellet (P2) was resuspended with Mannitol Buffer 1:1 and frozen at −80° C. The supernatant (S2) was centrifuged in 100 ml Beckman polypropylene centrifugal tubes at 48000×g for 50 minutes at 4° C. (Beckman Avanti J-20 XP: rotor JA-18). The supernatant (S3) was discarded and the pellet (P3) was resuspended with 1:1 Mannitol Buffer. The P2 and P3 protein concentration was determined with the BIORAD Standard assay method with bovine serum albumin as standard and measured on the NANO-Drop 1000. The membrane suspension was aliquots (500 μl per tube) and stored at −80° C. until required.
(§3) Membrane homogenates were resuspended and polytronised (Polytron PT1200E Kinematica AG) in Potassium Phosphate 10 mM, KCl 100 mM binding buffer at pH 7.4 to a final assay concentration determined with a previous experiment.
(§4) Assays were incubated to equilibrium for 1 hour at 4° C. and then, membranes were filtered onto unifilter (96-well white microplate with bonded GF/C filters preincubated 20-50 minutes in 0.3% Polyethylenimine) with a Filtermate 196 harvester (Packard BioScience) and washed 4 times with cold Potassium Phosphate 10 mM pH 7.4, KCl 100 mM binding buffer. After anhydrousing, filter-retained radioactivity was detected by liquid scintillation counting. Ki values were calculated using Excel-Fit (Microsoft) and are the means of two determinations.

[3] = molecular target: human GABAA α5β2γ1 receptor (Homo sapiens (Human), UniProt P31644+Q8N1C3); experiment: Radioligand binding assay, competition for [3H]RO7239181, γ1-containing GABAA subtype α5β2γ1
Description: as §1, with “α1β2γ1. For better protein expression of the α2 subunit-containing receptors, the 28 amino acid long signal peptide (Met1 to Ala28)of the human GABAA α2 subunit was substituted by the 31 amino acid long signal peptide (Met1 to Ser31) of human GABAA α5 subunit.” for “α1β2γ1.”
as §2, §3
as §4, with “Radioligand binding assays were carried out in a volume of 200 μL (96-well plates) which contained 100 μL of cell membranes, [3H]RO7239181 at a concentration of 1.5 nM (α5β2γ1) or 20-30 nM (α1β2γ1, α2β2γ1) and the test compound in the range of [0.3-1000]×10^−9 M. Nonspecific binding was defined by 10×10^−6 (α5β2γ1) and 30×10^−6 M RO7239181 and typically represented less than 5% (α5β2γ1) and less than 20% (α1β2γ1, α2β2γ1) of the total binding. Assays” for “Assays”

[4] = read-out: Ki h-GABAA α2β2γ1, Table 2, membranes of HEK293F cells, [3H]RO7239181

For `C[C@@H]1N=C(c2c(F)cccc2F)c2c(ccc(Br)c2Cl)-n2cc(Br)c(=O)nc21` [Example 16, (5S)-2,9-dibromo-8-chloro-7-(2,6-difluorophenyl)-5-methyl-5H-pyrimido[1,2-a][1,4]benzodiazepin-3-one], the Ki [1] was 1.57 µM, the “Efficacy (GABA) %” value (h-GABA-A α2β2γ1) was 71% and the “Fold increase h-GABA-A α2β2γ1 oocyte @ 30-fold Ki” value (h-GABA-A α2β2γ1) was 1.71. The Ki [2] was 0.0083 µM, the “γ2/γ1 Selectivity Ratio” value [2] was 188.0 and the LogSel [2] was 2.27. The Ki [3] was 0.0016 µM.

`O=c1ccn2c(n1)CN=C(c1c(F)cccc1F)c1c-2ccc(Br)c1Cl` [Example 12, 9-bromo-8-chloro-7-(2,6-difluorophenyl)-5H-pyrimido[1,2-a][1,4]benzodiazepin-3-one] was tested, and the Ki [1] was 0.322 µM, the “Efficacy (GABA) %” value (h-GABA-A α2β2γ1) was 65% and the “Fold increase h-GABA-A α2β2γ1 oocyte @ 30-fold Ki” value (h-GABA-A α2β2γ1) was 1.65. The Ki [2] was 0.0046 µM, the “γ2/γ1 Selectivity Ratio” value [2] was 70.5 and the LogSel [2] was 1.85. For the same compound, the Ki [2, 4] was 0.0046 µM and the Ki [3] was 0.0007 µM.

`Cc1nnc2n1-c1ccc(Cl)cc1C(c1ccccc1)=NC2` [Alprazolam, reference compound] was tested, and the LogSel ([2]; Table 3) was −2.3.

With `C[C@@H]1N=C(c2c(F)cccc2F)c2c(ccc(Cl)c2Br)-n2cc(Br)c(=O)nc21` [Example 23, (5S)-2,8-dibromo-9-chloro-7-(2,6-difluorophenyl)-5-methyl-5H-pyrimido[1,2-a][1,4]benzodiazepin-3-one] the Ki [1] was 3 µM, the “Efficacy (GABA) %” value (h-GABA-A α2β2γ1) was 107% and the “Fold increase h-GABA-A α2β2γ1 oocyte @ 30-fold Ki” value (h-GABA-A α2β2γ1) was 2.07. For the same compound, the Ki [2] was 0.0741 µM, the “γ2/γ1 Selectivity Ratio” value [2] was 40.5 and the LogSel [2] was 1.61. The Ki [2, 4] was 0.0741 µM and the Ki [3] was 0.0068 µM.

With `O=c1nc2n(cc1Br)-c1ccc(Br)c(Cl)c1C(c1c(F)cccc1F)=NC2` [Example 15, 2,9-dibromo-8-chloro-7-(2,6-difluorophenyl)-5H-pyrimido[1,2-a][1,4]benzodiazepin-3-one] the Ki [1] was 1.97 µM, the “Efficacy (GABA) %” value (h-GABA-A α2β2γ1) was 69% and the “Fold increase h-GABA-A α2β2γ1 oocyte @ 30-fold Ki” value (h-GABA-A α2β2γ1) was 1.69. The Ki [2] was 0.008 µM, the “γ2/γ1 Selectivity Ratio” value [2] was 244.8 and the LogSel [2] was 2.39. For the same compound, the Ki [2, 4] was 0.008 µM and the Ki [3] was 0.0008 µM.

`C[C@@H]1N=C(c2c(F)cccc2F)c2c(ccc(Cl)c2Br)-n2ccc(=O)nc21` [Example 6, (5S)-8-bromo-9-chloro-7-(2,6-difluorophenyl)-5-methyl-5H-pyrimido[1,2-a][1,4]benzodiazepin-3-one] was tested, and the Ki [1] was 1.78 µM, the “Efficacy (GABA) %” value (h-GABA-A α2β2γ1) was 121% and the “Fold increase h-GABA-A α2β2γ1 oocyte @ 30-fold Ki” value (h-GABA-A α2β2γ1) was 2.21. The Ki [2] was 0.0499 µM, the “γ2/γ1 Selectivity Ratio” value [2] was 35.7 and the LogSel [2] was 1.55. It also gave a Ki [2, 4] of 0.0499 µM and a Ki [3] of 0.0048 µM.

`O=c1nc2n(cc1Br)-c1ccc(Cl)c(Cl)c1C(c1c(F)cccc1F)=NC2` [Example 5, 2-bromo-8,9-dichloro-7-(2,6-difluorophenyl)-5H-pyrimido[1,2-a][1,4]benzodiazepin-3-one] was tested, and the Ki [1] was 2.02 µM, the “Efficacy (GABA) %” value (h-GABA-A α2β2γ1) was 78% and the “Fold increase h-GABA-A α2β2γ1 oocyte @ 30-fold Ki” value (h-GABA-A α2β2γ1) was 1.78. The Ki [2] was 0.0106 µM, the “γ2/γ1 Selectivity Ratio” value [2] was 190.6 and the LogSel [2] was 2.28. It also gave a Ki [2, 4] of 0.0106 µM and a Ki [3] of 0.0014 µM.

`O=c1ccn2c(n1)CN=C(c1ccccc1F)c1cc(Cl)ccc1-2` [RE-A, 9-chloro-7-(2-fluorophenyl)-5H-pyrimido[1,2-a][1,4]benzodiazepin-3-one, reference compound] was tested, and the Ki [1] was 0.0278 µM, the Ki [2] was 0.123 µM and the “γ2/γ1 Selectivity Ratio” value ([2]; Table 3) was 0.23. It also gave a LogSel ([2]; Table 3) of −0.64.

For `Cc1ncc2n1-c1ccc(Cl)cc1C(c1ccccc1F)=NC2` [Midazolam, reference compound], the “potentiation of the GABA-induced current” value (h-GABA-A α2β2γ1) was ~60% and the LogSel ([2]; Table 3) was −2.2.

For `CN1C(=O)CN=C(c2ccccc2F)c2cc([N+](=O)[O-])ccc21` [Flunitrazepam, reference compound], the “potentiation of the GABA-induced current” value (h-GABA-A α2β2γ1) was ~60%.

For `Cc1nnc2n1-c1ccc(Cl)cc1C(c1ccccc1Cl)=NC2` [Triazolam, reference compound], the “potentiation of the GABA-induced current” value (h-GABA-A α2β2γ1) was ~60% and the LogSel ([2]; Table 3) was −1.5.
